In patent publication US12366570B2, “Cell-based ZNT8 assay” (THE JOHNS HOPKINS UNIVERSITY, priority 2019, dated 2025):

Experiments:
EndoC-βH1 cells [1] = assay: Total cellular insulin content, HTRF insulin assay; format: cell-based, human; settings: 24 hr
Description: GSIS and insulin quantification. EndoC-βH1 cells with dose titrations of Glc+PA, zinc or cytokines cocktail in a 96-well plate were switched to a Krebs buffer (Alfa Aesar, cat. #J67795). After cell starvation in Krebs buffer for 1 h, EndoC-βH1 cells were replaced with fresh Krebs buffer containing 20 mM glucose plus 45 μM IBMX. After 45 min, the Krebs buffer was collected for measurement of secreted insulin. Cells were then lysed by 100 μl/well Krebs buffer with 1% DDM. Total insulin content was measured in 100-fold diluted cell lysate, A homogeneous time resolved fluorescence (HTRF) based ultra-sensitive insulin kit (Cisbio, cat. #62IN2PEG) was used to detect both secreted and total insulin as described previously (60).

[2] = test system: endogenous ZnT8 in EndoC-βH1 cells; assay: In-cell ZnT8-ELISA tracking the endogenous ZnT8 level under stressor exposure; format: cell-based, human
Description: Stressor exposures. PA-BSA conjugation was prepared by adding PA powder to a final concentration of 8 mM in 1.6 mM FFA-free BSA (Sigma, Cat. #A7030-50G) pre-dissolved in 135 mM NaCl, 3.6 mM KCl, 0.5 mM MgCl2, and 10 mM HEPES (pH 7.4). The mixture was incubated with gentle stir at 37° C. and then filter-sterilized and stored at 4° C. as described previously (79). When added to the cell culture, the PA-BSA mixture was diluted 13.3-fold with supplement of glucose to make a 1× Glc+PA solution containing 0.6 mM PA and 48 mM Glc. A cytokine cocktail was prepared before each experiment by mixing individual stock solutions of IL-1β, IFN-γ, IL-17, […] at respective concentrations used previously on human islets and EndoC-PHI cells (37). 1× cytokine cocktail in the culture medium contained 5 ng/ml IL-1β, 10 ng/ml TNF-α, 50 ng/ml IFN-γ and 100 ng/ml IL-17 All cytokines were provided by R&D Systems (Minneapolis, MN, USA). […] After a designated exposure period, the endogenous ZnT8 level in each well was analyzed along with stress-induced cytotoxicity, GSIS and cellular insulin content. […]
In-cell ELISAs. […] The HRP reaction was terminated at 5 min by transferring the reaction mixture to a 96-well opaque microplate for chemiluminescence quantification on a FlexStation-3 multi-mode microplate reader.

EndoC-βH1 cells [3] = assay: CellTox Green cytotoxicity assay; format: cell-based
Description: Cytotoxicity Assay. Cell culture and experiments were performed in a 96-well plate in culture media without phenol red (Sigma, Cat. #D4947). Cytotoxicity in cell culture after experimental manipulation was continuously monitored based on the change in the fluorescence intensity of a CellTox Green Dye (Promega, Cat. #G8741) that preferentially stained dead cells with a loss of membrane integrity. The dye was 1:1000 diluted in the culture medium and delivered directly to cells at the same time of dose titrations of Glc+PA, zinc and cytokines. CellTox fluorescence signals were recorded on a FlexStation-3 multi-mode microplate reader with eight replicates at 0, 1, 2, 4, 6, 8, 20, 24, 30, and 48 hr following dye and stressor additions. Viable cells in the control cell culture medium produced no appreciable increases in CellTox fluorescence due to an excellent tolerance of EndoC-βH1 cells to the dye. At the end of experiment, all cells were lysed by adding detergent (DDM) to 0.1% in each well, and the maximum CellTox fluorescence intensity was recoded and used for normalization of the CellTox fluorescence intensity.
SLC30A8 knockdown. To perform gene silencing by RNA interference, a master mix of Opti-MEM reduced serum-free medium (Gibco, cat. #31985-062) was pre-mixed with 0.4% RNAiMAX transfection reagent (Invitrogen, cat. #13778-100) and 75 nM ZnT8 targeting or scrambled siRNA (OriGene cat. #SR325944). The solution was then incubated at room temperature for 10 min to form siRNA-lipid complexes before 50 μl of the master mix was added to each well in a 96-well plate. Cells resuspended in standard culturing media were added in a 1:1 volume to give 7×10^4 cells per well. After 24 h, the transfection media were replaced with complete culturing media. After additional 2 days, cells were exposed to 1× cytokine cocktail, followed by immunoblotting and cytotoxicity analysis as described above.

ZnT8 [4] = assay: Immunoblotting of ZnT8 (mAb20) in total cell lysate; format: cell-based, human; settings: 24 hr
Description: Immunoblotting. Cells in a 96-well plate were directly resuspended in 50 μl/well 1× Laemmli Sample Buffer (Bio-Rad cat. #1610737). An aliquot of 15 μl SDS-lysate was loaded onto a precast protein gel for SDS-PAGE and subsequent immunoblotting using the following antibodies directed to ZnT8 (mAb20), tubulin (Invitrogen, Cat. #MA1-83256), calnexin (Proteintech, Cat. #10427-2-AP), BAP31 (Proteintech, Cat. #11200-1-AP), IA2 (Proteintech, Cat. #10584-1-AP), TMED3 (Proteintech, Cat. #21902-1-AP), VAMP2 (Proteintech, Cat. #10135-1-AP), Golgin97 (Proteintech, Cat. #12640-1-AP) and HLA-I (Proteintech, Cat. #15240-1-AP). Protein band intensity was measured using ImageJ, and the numerical value for each stressor-treated protein sample was normalized to the untreated sample on the same immunoblot.
SLC30A8 knockdown. To perform gene silencing by RNA interference, a master mix of Opti-MEM reduced serum-free medium (Gibco, cat. #31985-062) was pre-mixed with 0.4% RNAiMAX transfection reagent (Invitrogen, cat. #13778-100) and 75 nM ZnT8 targeting or scrambled siRNA (OriGene cat. #SR325944). The solution was then incubated at room temperature for 10 min to form siRNA-lipid complexes before 50 μl of the master mix was added to each well in a 96-well plate. Cells resuspended in standard culturing media were added in a 1:1 volume to give 7×10^4 cells per well. […]

ZnT8 [5] = molecular target: T1, ZnT8 (Homo sapiens, UniProt Q8IWU4); settings: cited from earlier work
T1 sequence (Q8IWU4 1-369): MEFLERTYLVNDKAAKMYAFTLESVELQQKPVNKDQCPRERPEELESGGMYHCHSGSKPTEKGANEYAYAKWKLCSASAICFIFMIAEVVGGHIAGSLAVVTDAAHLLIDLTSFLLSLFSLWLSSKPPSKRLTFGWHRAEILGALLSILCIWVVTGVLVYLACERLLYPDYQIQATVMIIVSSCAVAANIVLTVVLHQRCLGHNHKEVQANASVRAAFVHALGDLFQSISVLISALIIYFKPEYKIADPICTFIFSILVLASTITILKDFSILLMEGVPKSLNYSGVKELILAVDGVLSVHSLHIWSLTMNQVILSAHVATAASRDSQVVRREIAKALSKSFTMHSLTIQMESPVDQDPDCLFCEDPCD

[6] = 1 μM epoxomicin with 1× cytokines

[Zn] [zinc]
cellular insulin content, dose profile (EndoC-βH1 cells [1]; increasing stressor concentration): increased the insulin content
endogenous ZnT8 level, dose profile ([2]; extracellular zinc from trace amount (EDTA chelation) to 600 μM): biphasic change
zinc concentration at the peak of the biphasic ZnT8 profile ([2]; extracellular zinc up to 600 μM): around 10 μM
zinc toxicity (CellTox, FIG. 2F) (EndoC-βH1 cells [3]; 600 μM zinc): zinc toxicity was evident
cell integrity (CellTox fluorescence) (EndoC-βH1 cells [3]; modest zinc exposure (<=200 μM), compared to untreated cells): did not alter the cell integrity

CC[C@H](C)[C@H](NC(=O)[C@H]([C@@H](C)CC)N(C)C(C)=O)C(=O)N[C@H](C(=O)N[C@@H](CC(C)C)C(=O)[C@@]1(C)CO1)[C@@H](C)O [epoxomicin]
cytokine-induced downregulation of ZnT8 (ZnT8 [4]; [6]): blocked
ZnT8 expression (ZnT8 [4]; epoxomicin alone, 1 μM): neither altered ZnT8 expression
cytokine-induced downregulation of insulin (EndoC-βH1 cells [1]; [6]): blocked
damaged cells (EndoC-βH1 cells [3]; combination of epoxomicin and 1× cytokine, 24 hr exposure): 26.8%

B1: mAb20: anti-ZnT8 monoclonal antibody; heavy chain and light chain SEQ ID NOS:32 and 37 (antibody)
heavy: MDMRVPAQLLGLLLLWLRGARCQIQLVQSGPELKKPGETVKISCKASGYIFTNYPMHWVKQAPGKGLKWMGWINTYSGVPTHADDFKGRFAFSLETSANSAFLQINNLKNEDTATYFCTRSRITPTGGYAMDYWGQGTSVTVSSAKTTPPSVYPLAPGSAAQTNSMVTLGCLVKGYFPEPVTVTWNSGSLSSGVHTFPAVLQSDLYTLSSSVTVPSSTWPSETVTCNVAHPASSTKVDKKIVPRDCGCKPCICTVPEVSSVFIFPPKPKDVLTITLTPKVTCVVVDISKDDPEVQFSWFVDDVEVHTAQTQPREEQFNSTFRSVSELPIMHQDWLNGKEFKCRVNSAAFPAPIEKTISKTKGRPKAPQVYTIPPPKEQMAKDKVSLTCMITDFFPEDITVEWQWNGQPAENYKNTQPIMDTDGSYFVYSKLNVQKSNWEAGNTFTCSVLHEGLHNHHTEKSLSHSPGK
light: MDMRVPAQLLGLLLLWLRGARCDVVMTQTPLSLPVSLGDQASISCRSSQSLVHSNGNTYLHWYLQKPGQSPNLLISKVSNRFSGVPERFSGSGSGTDFTLKISRVEAEDLGVYFCSQNTHVPWTFGGGTKLEIKRADAAPTVSIFPPSSEQLTSGGASVVCFLNNFYPKDINVKWKIDGSERQNGVLNSWTDQDSKDSTYSMSSTLTLTKDEYERHNSYTCEATHKTSTSPIVKSFNRNEC
modifications: mAb20 heavy chain; mAb20 light chain
binding affinity (ZnT8 [5]): subnanomolar

B2: mAb39: anti-ZnT8 monoclonal antibody; heavy chain and light chain SEQ ID NOS:52 and 57 (antibody)
heavy: MGWSCIMFFLVATATDVHSQVQLQQPGAELVKPGASVKLSCKASGYSFTTYWMHWVKQRPGQGLEWVGDINPRNGRTNYNEKSKSKATLTVDISSSTVYMQVSSLTSEDSAVYYCAIWSGAMDYWGPGTSVTVSSAKTTAPSVYPLAPVCGDTTGSSVTLGCLVKGYFPEPVTLTWNSGSLSSDVHTFPALLQSGLYTLSSSVTVTTWPSQTITCNVAHPASSTKVDKKIEPRGSPTHKPCPPCPAPNLLGGPSVFIFPPKIKDVLMISLSPMVTCVVVDVSEDDPDVHVSWFVNNVEVHTAQTQTHREDYNSTIRVVSALPIQHQDWMSGKEFKCKVNNKALPAPIERTISKPKGPVRAPQVYVLPPPEEEMTKKQVTLTCMITDFMPEDIYVEWTNNGQTELNYKNTEPVLDSDGSYFMYSKLRVEKKNWVERNSYSCSVVHEGLHNHHTTKSFSRSPGK
light: MKLPVRLLVLMFWIPASSSDVVMTQTPLSLPVSLGDQPSISCKSSQSLVHNNGNTYLHWYLQKPGQSPKLLIYKVSNRFSGVPDRFSGSGSGTDFTLKISRVEAEDLGVYFCSQTTHVPPTFGGGTKLEIKRADAAPTVSIFPPSSEQLTSGGASVVCFLNNFYPKDINVKWKIDGSERQNGVLNSWTDQDSKDSTYSMSSTLTLTKDEYERHNSYTCEATHKTSTSPIVKSFNRGEC
modifications: mAb39 heavy chain; mAb39 light chain
binding affinity (ZnT8 [5]): subnanomolar
